Results as given in patent US10632208B2, “Peptide-mediated drug delivery across epithelial barrier” (Purdue Research Foundation, priority 2017, dated 2020).
Entries after “also recorded” stand apart in the source; their conditions may differ.

What was measured:
L. monocytogenes [1] = assay: Translocation of L. monocytogenes through polarized Caco-2 monolayers on Transwell filter-inserts; format: cell-based, Listeria monocytogenes; conditions: for effect on translocation of the lap strain: 30 min pretreatment, BAY 10 μM or PDTC 100 μM
Procedure: Caco-2 cells were grown as monolayers on Transwell inserts with 3.0 μm pores (Corning-Costar) for up to 14-21 days. TEER was measured to monitor the monolayer integrity (Millicells Voltmeter, Millipore). A TEER value of at least 200 Ω/cm^2 (±10) was used as the basal value to monitor the monolayer integrity. Bacterial cells were washed three times in PBS and resuspended in DMEM-FBS (10%) at a MOI of ˜50 and were added to the apical side of the Transwell system, and after 2 h incubation period at 37° C. in 5% CO2, the liquid was collected from the basal well, and then translocated bacteria were enumerated by plating (Burkholder and Bhunia, 2010). For analysis of FD4 flux, non-metabolizable 4 kDa FITC-labeled dextran (FD4; 5 mg/ml, Sigma-Aldrich) was added with bacteria (MOI, ˜50) resuspended in DMEM-FBS (10%) and added to the apical side. After 2 h incubation at 37° C. in 5% CO2, the liquid was collected from the basal well and fluorescence was measured (Em: 485 nm; Ex: 520 nm; Spectramax, Molecular Devices). For pharmacological inhibition treatments, PDTC (100 μM for 30 min pre-treatment; R&D Systems), Bay-11-7085 (10 μM for 30 min pre-treatment; Sigma-Aldrich), ML-9 (20 μM for 30 min pre-treatment; Sigma-Aldrich), PIK (150 μM, 30 min-pre-treatment and kept during 2-h infection) (Zolotarevsky et al., 2002), and Cytochalasin D (1 μg/mL for 1 h; Sigma-Aldrich) were used separately.
For re-association of externally added LAP to the lap^− mutant, bacteria were harvested from 1 ml of overnight grown culture, and the pellet was washed three times in PBS before the addition of 1 or 2 μg/mL of purified LAP. The mixture was incubated for 30 min at 30° C. with continuous shaking and then pelleted, washed five times in the PBS, resuspended in DMEM, and used in the aforementioned translocation assay.

L. monocytogenes [2] = assay: Intracellular invasion of L. monocytogenes in Caco-2 cells (gentamicin protection); format: cell-based, Listeria monocytogenes
Procedure: For bacterial invasion analysis, monolayers were washed with PBS after 1 h of infection (MOI, ˜50) and incubated with DMEM-FBS (10%) containing gentamicin (50 μg/mL) for 1 h. Caco-2 cells were lysed with 0.1% Triton X, and the internalized bacteria were enumerated by plating.

NF-κB(p65) = assay: Immunoblot of NF-κB activation in Caco-2 cytoplasmic and nuclear extracts; format: cell-based, human; conditions: BAY 10 μM or PDTC 100 μM, Caco-2 cells
Procedure: (§1) To extract the proteins from Caco-2 cells, cells were seeded in 6-well plates for 14-21 days. Following treatment, the cells were washed, scraped from the bottom of 6-well plates, suspended in PBS, and pelleted by centrifugation. Total protein from Caco-2 cells was extracted using the M-PER Extraction Kit (Thermo Fisher Scientific). Detergent-insoluble (membrane) and detergent-soluble (cytosolic) proteins were isolated using a Mem-Per Eukaryotic Protein Extraction Kit (Thermo Fisher Scientific) while the cytosolic and nuclear proteins were extracted using NE-PER Extraction Reagent (Thermo Fisher Scientific). To extract proteins from ileal epithelial cells, the epithelial cell fraction from ileal tissues were isolated as described above and the detergent-insoluble and the detergent-soluble proteins were isolated using a Mem-Per Eukaryotic Protein Extraction Kit.
To extract total protein from intact bacterial cells, sample solvent buffer and sonication (3 cycles of […]) were used. To isolate the cell wall-associated proteins bacterial pellets were resuspended in 0.5 ml protein extraction buffer (0.5% SDS, 10 mM Tris at pH 6.9), and incubated at 37° C. for 30 min with agitation. The samples were centrifuged (14,000×g, 10 min, 4° C.), and the supernatants (containing cell wall-associated proteins) were retained. Halt proteases and phosphatase inhibitors (Thermo Fisher Scientific) were used during all of the protein extraction procedures. The protein concentrations were determined by BCA assay (Thermo Fisher Scientific), and separated on SDS-PAGE gels (10-12.5% polyacrylamide) and electro-transferred to polyvinylidene difluoride (PVDF) membrane (Millipore). The membranes were then blocked in 5% nonfat dry milk (NFDM) in 0.1 M Tris-buffered saline, pH 7.5 (TBS) containing 0.1% Tween 20 (TBST) for at least 1 h. All of the primary antibodies were diluted in 5% bovine serum albumin (BSA) or 5% NFDM in TBST and incubated overnight. Secondary antibodies (1:2000 in 5% NFDM in TBST) incubated for 1 h at 37° C., and a chemiluminescence method was performed using LumiGLO reagent (Cell Signaling). The membranes were exposed to X-ray films or visualized using the Chemi-Doc XRS system (Bio-Rad). To immunoprobe the same membrane with another antibody, the originally bound antibodies from the membranes were removed by incubating the membranes in Restore Western Blot Stripping Buffer (Thermo Fisher Scientific) according to the manufacturer's protocol. To compare the reaction intensities, the average band densities were determined using Quantity One software (Bio-Rad). Densitometry reports represent the mean±SEM after normalization to the loading control and is presented as % change of protein with the average for untreated cells (control) set at 100%. Immunoblots and densitometric reports are representative of 2-3 independent experiments.

Caco-2 cell monolayers = assay: Transepithelial electrical resistance (TEER) of Caco-2 monolayers on Transwell inserts; format: cell-based, human; conditions: for effect on Caco-2 TEER in LAP-treated cells: BAY 10 μM or PDTC 100 μM
[3] = tested on: occludin, claudin-1 and E-cadherin; assay: Immunoblot of junctional proteins in detergent-insoluble fraction of Caco-2 cells; format: cell-based, human
Procedure: as §1
(§2) To extract total protein from intact bacterial cells, sample solvent buffer and sonication (3 cycles of 20 min each) were used. […] The protein concentrations were determined by BCA assay (Thermo Fisher Scientific), and separated on SDS-PAGE gels (10-12.5% polyacrylamide) and electro-transferred to polyvinylidene difluoride (PVDF) membrane (Millipore). […] To compare the reaction intensities, the average band densities were determined using Quantity One software (Bio-Rad). […]

MLCK = assay: Immunoblot of MLCK and P-MLC in whole-cell Caco-2 lysates; format: cell-based, human; conditions: pre-treatment prior to infection with WT strain, relative to uninfected cells
Procedure: as §1, §2

Structure (SMILES) | effect on translocation of WT and ΔinlA strains (L. monocytogenes [1]; PIK 150 μM or ML-9 20 μM, MOI 50) | effect on intracellular invasion of the WT strain (L. monocytogenes [2]) | effect on translocation of the lap strain (L. monocytogenes [1]) | effect on LAP-mediated NF-κB activation (NF-κB(p65)) | effect on Caco-2 TEER in LAP-treated cells (Caco-2 cell monolayers) | effect of the inhibitor alone on Caco-2 TEER (Caco-2 cell monolayers) | effect of the inhibitor alone on expression of junctional proteins [3] | effect on L. monocytogenes-induced redistribution of occludin, claudin-1 and E-cadherin ([3]; PIK 150 μM or BAY 10 μM, 30 min, prior to WT infection (MOI 50, 45 min)) | levels of MLCK and P-MLC in whole cell lysate (MLCK) | increase of translocation of WT (L. monocytogenes [1]; cytochalasin D 1 μg/mL for 1 h)
O=S(=O)(c1cccc2c(Cl)cccc12)N1CCCNCC1 [ML-9] | significantly reduced | none of these inhibitors, affected the intracellular invasion capabilities | – | – | – | – | – | – | – | –
S=C(S)N1CCCC1 [PDTC, pyrrolidine dithiocarbamate] | – | did not affect | no apparent effect | inhibited | restored | did not affect | – | – | – | –
CC(C)(C)c1ccc(S(=O)(=O)/C=C/C#N)cc1 [BAY, BAY 11-7085] | – | did not affect | no apparent effect | inhibited | restored | – | no effect | prevented; also recorded: Restoration | unchanged levels | –
C=C1[C@@H](C)[C@H]2[C@H](Cc3ccccc3)NC(=O)[C@]23[C@H](OC(C)=O)/C=C/[C@@](C)(O)C(=O)[C@@H](C)C/C=C/[C@H]3[C@@H]1O [Cytochalasin D] | – | low | – | – | – | very low | – | – | – | approximately 2.5 fold
